Patent US9649392B2, “Central nervous system labelling composition for intranasal administration and labelling method and screening method using central nervous system labelling composition for intranasal administration” (CANON KABUSHIKI KAISHA, priority 2009, dated 2017)

System: central nervous system of the zebrafish
Assay: dyeing of the central nervous system of juvenile zebrafish after exposure to dye solution, fluorescence/confocal microscope observation over time
Type: in vivo
Conditions: 7 dpf juvenile zebrafish; for dyeing of nerve cells of the central nervous system: confocal microscope; for dyed state of the central nervous system (transfer of dyeability with time from nasal cavity via olfactory bulb): left 1 hour, washed, observed at time intervals
Protocol: Distilled water was added to a 1 mg/mL DMSO solution of compound 1 (as expressed by the formula (5) above) to obtain a dye solution 1 containing the compound 1 to a concentration of 200 ng/mL. 1 mL of the dye solution 1 and a 7-day-old (7 dpf) juvenile fish of zebrafish were put into an arbitrarily selected well of a 24-hole multi plate (available from IWAKI) and left there for an hour. Thereafter, the dye solution 1 in the well was removed and an operation of replacing it with 1 mL of distilled water was repeated three times in ten minutes. The elapsed time after the last solution replacing operation was measured and the juvenile fish was taken out from the well when a predetermined time period had elapsed. The juvenile fish was buried in 5% low melting-point agarose gel on a glass slide to restrict any movement and the dyed state of the central nervous system of the zebrafish was observed from a lateral side and the vertex by using fluorescent microscope (MZ16FA: available from Leica). The central nervous system was observed by means of a confocal microscope (Pascal Exciter: available from Zeiss). After the observation, the zebrafish was returned into the well and repeatedly observed thereafter at regular time intervals. […]

Structure (SMILES) | dyeing of nerve cells of the central nervous system (dye solution 500 ng/mL) | dyed state of the central nervous system (transfer of dyeability with time from nasal cavity via olfactory bulb) (dye solution 500 ng/mL) | dyeing of nerve cells of the central nervous system (dye solution 200 ng/mL) | dyed state of the central nervous system (transfer of dyeability with time from nasal cavity via olfactory bulb) (dye solution 200 ng/mL)
CCN1c2ccc(/C=C/C3=[N+](CC)c4ccc(OC)cc4C34CCCCC4)cc2C2CCCC21 (stereo not drawn) [compound 3] | nerve cells of the central nervous system were also dyed | firstly the nasal cavity, then the olfactory bulb and finally the central nervous system were sequentially dyed |  | 
CC/N=c1\cc2oc3cc(NCC)c(C)cc3c(-c3ccccc3C(=O)OCC)c-2cc1C [compound 2] | nerve cells of the central nervous system were also dyed | firstly the nasal cavity, then the olfactory bulb and finally the central nervous system were sequentially dyed |  | 
CCN1/C(=C\C=C\C2=[N+](CC)c3ccccc3C23CCCCC3)C2(CCCCC2)c2ccccc21 [compound 1] |  |  | nerve cells of the central nervous system were also dyed | firstly the nasal cavity, then the olfactory bulb and finally the central nervous system were sequentially dyed
